Test results: ChEMBL document CHEMBL4152300, “Discovery of the selective and efficacious inhibitors of FLT3 mutations” (Eur J Med Chem, 2018); call rule not given here

Experiments:
[1] = target: Mast/stem cell growth factor receptor Kit (Homo sapiens, UniProt P10721); test: Inhibition of human KIT at 0.123 uM by Hotspot assay
K562 = test: Growth inhibition of FLT3 null human K562 cells after 72 hrs by Cell-Titer Glo assay; assay type: functional, cell-based; settings: K562, 72 h
MV4-11 [2] = test: Induction of apoptosis in human MV4-11 cells assessed as necrotic cells at 0.2 uM after 24 hrs by Annexin V-FITC/propidium iodide staining based flow cytometry (reference value: 0%); assay type: functional
[3] = target: Receptor-type tyrosine-protein kinase FLT3 (Homo sapiens, UniProt P36888, F691L/ITD); test: Binding affinity to human FLT3 ITD/F691L double mutant expressed in bacterial expression system by Kinomescan method
[4] = target: T1, Receptor-type tyrosine-protein kinase FLT3 (Homo sapiens, UniProt P36888); test: Inhibition of FLT3 phosphorylation at Tyr589/591 residues in human MV4-11 cells after 4 hrs by Western blot analysis; assay type: cell-based
[5] = target: Vascular endothelial growth factor receptor 3 (Homo sapiens, UniProt P35916); test: Inhibition of human FLT4 by Hotspot assay
Chain of Vascular endothelial growth factor receptor 3 (P35916 whole entry): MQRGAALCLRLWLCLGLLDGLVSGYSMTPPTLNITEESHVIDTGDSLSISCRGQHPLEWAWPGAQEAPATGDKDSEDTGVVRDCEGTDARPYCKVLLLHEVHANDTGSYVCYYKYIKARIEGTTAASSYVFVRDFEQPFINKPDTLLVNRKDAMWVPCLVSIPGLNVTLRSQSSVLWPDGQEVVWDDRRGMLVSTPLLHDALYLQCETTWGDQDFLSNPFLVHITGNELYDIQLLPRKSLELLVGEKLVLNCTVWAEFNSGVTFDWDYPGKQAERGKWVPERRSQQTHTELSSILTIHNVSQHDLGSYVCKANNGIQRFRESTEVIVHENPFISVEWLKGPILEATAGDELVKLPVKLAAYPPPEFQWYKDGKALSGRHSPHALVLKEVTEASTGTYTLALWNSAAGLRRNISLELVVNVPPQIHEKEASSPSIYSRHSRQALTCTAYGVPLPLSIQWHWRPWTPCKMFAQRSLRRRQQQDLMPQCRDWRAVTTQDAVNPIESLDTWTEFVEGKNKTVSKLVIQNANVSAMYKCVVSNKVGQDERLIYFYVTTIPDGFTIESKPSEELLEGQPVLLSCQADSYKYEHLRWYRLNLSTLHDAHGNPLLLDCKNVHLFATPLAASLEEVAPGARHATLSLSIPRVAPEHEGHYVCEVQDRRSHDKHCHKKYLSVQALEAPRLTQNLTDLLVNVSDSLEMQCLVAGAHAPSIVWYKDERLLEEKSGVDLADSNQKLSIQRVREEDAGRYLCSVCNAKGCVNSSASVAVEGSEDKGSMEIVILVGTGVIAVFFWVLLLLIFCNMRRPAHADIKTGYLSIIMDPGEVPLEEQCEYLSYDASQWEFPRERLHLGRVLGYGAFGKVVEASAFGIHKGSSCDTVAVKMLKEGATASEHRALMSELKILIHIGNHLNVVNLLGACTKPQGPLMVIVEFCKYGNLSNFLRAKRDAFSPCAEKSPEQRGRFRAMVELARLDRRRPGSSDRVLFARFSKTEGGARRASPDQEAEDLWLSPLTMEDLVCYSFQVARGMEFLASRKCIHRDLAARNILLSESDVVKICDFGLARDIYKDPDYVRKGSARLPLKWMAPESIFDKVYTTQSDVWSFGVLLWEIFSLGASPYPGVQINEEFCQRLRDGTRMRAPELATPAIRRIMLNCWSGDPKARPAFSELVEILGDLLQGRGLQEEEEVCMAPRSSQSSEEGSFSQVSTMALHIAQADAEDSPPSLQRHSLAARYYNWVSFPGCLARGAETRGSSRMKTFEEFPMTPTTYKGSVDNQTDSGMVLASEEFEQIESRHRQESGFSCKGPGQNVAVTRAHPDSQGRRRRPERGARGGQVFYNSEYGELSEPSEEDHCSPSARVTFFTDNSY

[6] = target: T1, Receptor-type tyrosine-protein kinase FLT3; test: Inhibition of human FLT3 F594_R595insREY mutant by Hotspot assay
[7] = Half life in human liver microsomes preincubated for 5 mins followed by NADPH addition by LC-MS/MS analysis; assay type: ADME, microsome
HL-60 = test: Growth inhibition of human HL60 cells expressing low levels of FLT3 after 72 hrs by Cell-Titer Glo assay; assay type: functional, cell-based; settings: HL-60, 72 h
[8] = target: T2, Receptor-type tyrosine-protein kinase FLT3 (Homo sapiens, UniProt P36888, D835Y); test: Binding affinity to human FLT3 D835Y mutant (Q580 to Y969 residues) expressed in bacterial expression system by Kinomescan method
MV4-11 [9] = test: Induction of apoptosis in human MV4-11 cells assessed as early apoptotic cells at 0.5 uM after 24 hrs by Annexin V-FITC/propidium iodide staining based flow cytometry (reference value: 0%); assay type: functional
[10] = target: T3, Vascular endothelial growth factor receptor 2 (Homo sapiens, UniProt P35968); test: Inhibition of human KDR by Hotspot assay
T3 sequence (P35968 whole entry): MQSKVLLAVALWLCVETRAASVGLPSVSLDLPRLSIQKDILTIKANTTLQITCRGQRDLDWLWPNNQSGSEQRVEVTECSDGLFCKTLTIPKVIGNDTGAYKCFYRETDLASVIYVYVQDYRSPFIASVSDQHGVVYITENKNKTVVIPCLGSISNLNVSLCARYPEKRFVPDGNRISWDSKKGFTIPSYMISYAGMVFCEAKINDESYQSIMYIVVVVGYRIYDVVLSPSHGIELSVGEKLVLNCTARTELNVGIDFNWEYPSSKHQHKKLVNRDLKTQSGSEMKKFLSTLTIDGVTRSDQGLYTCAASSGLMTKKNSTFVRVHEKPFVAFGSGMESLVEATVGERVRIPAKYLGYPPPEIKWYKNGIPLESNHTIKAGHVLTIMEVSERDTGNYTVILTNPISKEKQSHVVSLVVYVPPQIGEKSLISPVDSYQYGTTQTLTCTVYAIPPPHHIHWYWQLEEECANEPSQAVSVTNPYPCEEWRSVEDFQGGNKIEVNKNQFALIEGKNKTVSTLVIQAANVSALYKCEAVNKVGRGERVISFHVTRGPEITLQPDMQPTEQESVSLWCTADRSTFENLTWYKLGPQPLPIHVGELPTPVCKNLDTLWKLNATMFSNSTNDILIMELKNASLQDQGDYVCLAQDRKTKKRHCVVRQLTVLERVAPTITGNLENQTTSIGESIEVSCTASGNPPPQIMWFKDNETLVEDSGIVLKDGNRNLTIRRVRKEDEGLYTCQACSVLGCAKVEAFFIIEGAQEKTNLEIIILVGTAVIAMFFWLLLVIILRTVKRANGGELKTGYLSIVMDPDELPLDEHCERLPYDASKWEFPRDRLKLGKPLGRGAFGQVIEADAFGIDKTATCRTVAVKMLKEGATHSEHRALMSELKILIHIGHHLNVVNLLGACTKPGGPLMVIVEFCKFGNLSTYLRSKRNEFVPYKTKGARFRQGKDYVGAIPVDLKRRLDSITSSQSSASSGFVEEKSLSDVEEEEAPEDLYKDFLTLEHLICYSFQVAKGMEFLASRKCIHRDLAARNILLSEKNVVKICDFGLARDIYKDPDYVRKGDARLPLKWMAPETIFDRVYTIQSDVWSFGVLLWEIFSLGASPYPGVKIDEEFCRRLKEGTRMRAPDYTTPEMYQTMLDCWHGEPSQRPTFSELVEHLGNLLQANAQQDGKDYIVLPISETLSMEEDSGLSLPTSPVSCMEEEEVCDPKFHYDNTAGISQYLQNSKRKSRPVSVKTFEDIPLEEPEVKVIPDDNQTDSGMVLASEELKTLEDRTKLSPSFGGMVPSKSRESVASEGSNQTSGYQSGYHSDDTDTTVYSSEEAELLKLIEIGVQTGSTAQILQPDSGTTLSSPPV

[11] = target: T1, Receptor-type tyrosine-protein kinase FLT3; test: Inhibition of human FLT3 R595_E596 mutant by Hotspot assay
MV4-11 [12] = test: Induction of apoptosis in human MV4-11 cells assessed as live cells at 0.5 uM after 24 hrs by Annexin V-FITC/propidium iodide staining based flow cytometry (reference value: 100%); assay type: functional
MV4-11 [13] = test: Induction of apoptosis in human MV4-11 cells assessed as early apoptotic cells at 0.2 uM after 24 hrs by Annexin V-FITC/propidium iodide staining based flow cytometry (reference value: 0%); assay type: functional
[14] = target: Receptor-type tyrosine-protein kinase FLT3 (Homo sapiens, UniProt P36888, D835V/ITD); test: Binding affinity to human FLT3 ITD/D835V double mutant expressed in bacterial expression system by Kinomescan method
MV4-11 [15] = test: Induction of apoptosis in human MV4-11 cells assessed as live cells at 0.2 uM after 24 hrs by Annexin V-FITC/propidium iodide staining based flow cytometry (reference value: 100%); assay type: functional
[16] = target: T1, Receptor-type tyrosine-protein kinase FLT3; test: Inhibition of FLT3 in human MV4-11 cells assessed as reduction in STAT5 phosphorylation at Tyr694 residue after 4 hrs by Western blot analysis; assay type: cell-based
[17] = target: T1, Receptor-type tyrosine-protein kinase FLT3; test: Inhibition of human FLT3 Y591-V592 mutant by Hotspot assay
[18] = target: T3, Vascular endothelial growth factor receptor 2; test: Inhibition of human KDR at 0.123 uM by Hotspot assay relative to control
MV4-11 [19] = test: Induction of apoptosis in human MV4-11 cells after 24 hrs by Annexin V-FITC/propidium iodide staining based flow cytometry; assay type: functional, cell-based
MV4-11 [20] = test: Induction of apoptosis in human MV4-11 cells assessed as necrotic cells at 0.5 uM after 24 hrs by Annexin V-FITC/propidium iodide staining based flow cytometry (reference value: 0%); assay type: functional
[21] = target: T1, Receptor-type tyrosine-protein kinase FLT3; test: Inhibition of human FLT3 F594_R595insR mutant by Hotspot assay
[22] = target: T2, Receptor-type tyrosine-protein kinase FLT3; test: Inhibition of human FLT3 D835Y mutant by Hotspot assay
[23] = target: Vascular endothelial growth factor receptor 1 (Homo sapiens, UniProt P17948); test: Inhibition of human FLT1 at 0.123 uM by Hotspot assay relative to control
Chain of Vascular endothelial growth factor receptor 1 (P17948 whole entry): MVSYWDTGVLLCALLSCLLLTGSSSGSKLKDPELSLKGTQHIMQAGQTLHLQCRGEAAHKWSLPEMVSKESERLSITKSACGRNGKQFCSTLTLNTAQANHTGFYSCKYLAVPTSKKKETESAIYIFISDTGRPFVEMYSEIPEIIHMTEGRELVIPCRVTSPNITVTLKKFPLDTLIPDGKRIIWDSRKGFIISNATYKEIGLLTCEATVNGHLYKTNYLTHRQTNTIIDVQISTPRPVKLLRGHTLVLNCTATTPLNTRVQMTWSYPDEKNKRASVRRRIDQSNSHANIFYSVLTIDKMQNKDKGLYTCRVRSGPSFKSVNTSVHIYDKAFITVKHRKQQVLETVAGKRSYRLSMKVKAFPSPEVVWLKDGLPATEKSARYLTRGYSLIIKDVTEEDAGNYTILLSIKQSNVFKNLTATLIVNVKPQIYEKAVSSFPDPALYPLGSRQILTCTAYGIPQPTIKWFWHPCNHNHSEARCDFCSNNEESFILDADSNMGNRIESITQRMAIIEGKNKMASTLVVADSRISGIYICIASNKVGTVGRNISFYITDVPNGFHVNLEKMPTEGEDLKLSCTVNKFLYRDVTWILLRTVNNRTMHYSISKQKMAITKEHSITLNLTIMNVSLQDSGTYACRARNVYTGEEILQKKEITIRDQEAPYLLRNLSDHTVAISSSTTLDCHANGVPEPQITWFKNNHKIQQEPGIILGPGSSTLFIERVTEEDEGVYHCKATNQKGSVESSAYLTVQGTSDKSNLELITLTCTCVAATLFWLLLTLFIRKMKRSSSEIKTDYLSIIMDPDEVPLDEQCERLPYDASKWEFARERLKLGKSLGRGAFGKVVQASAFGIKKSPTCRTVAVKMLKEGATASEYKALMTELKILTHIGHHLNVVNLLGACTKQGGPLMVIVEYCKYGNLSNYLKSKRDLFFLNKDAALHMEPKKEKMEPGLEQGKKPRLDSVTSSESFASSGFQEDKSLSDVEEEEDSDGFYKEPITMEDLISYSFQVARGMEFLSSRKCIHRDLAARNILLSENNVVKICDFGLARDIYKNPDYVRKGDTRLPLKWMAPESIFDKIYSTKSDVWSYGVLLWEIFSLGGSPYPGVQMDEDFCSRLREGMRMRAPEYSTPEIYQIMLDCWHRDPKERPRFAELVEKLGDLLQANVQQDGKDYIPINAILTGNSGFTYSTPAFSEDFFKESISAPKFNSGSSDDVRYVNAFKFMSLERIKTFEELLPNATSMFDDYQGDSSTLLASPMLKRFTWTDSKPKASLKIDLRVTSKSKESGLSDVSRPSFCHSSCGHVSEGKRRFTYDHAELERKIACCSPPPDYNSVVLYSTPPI

[24] = target: T4, Receptor-type tyrosine-protein kinase FLT3 (Homo sapiens, UniProt P36888, ITD); test: Inhibition of human FLT3 ITD-NPOS mutant by Hotspot assay
[25] = target: CDK2 (cyclin-dependent kinase 2) (Homo sapiens, UniProt P24941); test: Inhibition of CDK2 (unknown origin) assessed as residual activity at 0.123 uM by Hotspot assay relative to control; settings: CDK2 enzyme (unknown origin), read-out: Activity
[26] = target: T5, Receptor-type tyrosine-protein kinase FLT3 (Homo sapiens, UniProt P36888)
T5 sequence (P36888 whole entry): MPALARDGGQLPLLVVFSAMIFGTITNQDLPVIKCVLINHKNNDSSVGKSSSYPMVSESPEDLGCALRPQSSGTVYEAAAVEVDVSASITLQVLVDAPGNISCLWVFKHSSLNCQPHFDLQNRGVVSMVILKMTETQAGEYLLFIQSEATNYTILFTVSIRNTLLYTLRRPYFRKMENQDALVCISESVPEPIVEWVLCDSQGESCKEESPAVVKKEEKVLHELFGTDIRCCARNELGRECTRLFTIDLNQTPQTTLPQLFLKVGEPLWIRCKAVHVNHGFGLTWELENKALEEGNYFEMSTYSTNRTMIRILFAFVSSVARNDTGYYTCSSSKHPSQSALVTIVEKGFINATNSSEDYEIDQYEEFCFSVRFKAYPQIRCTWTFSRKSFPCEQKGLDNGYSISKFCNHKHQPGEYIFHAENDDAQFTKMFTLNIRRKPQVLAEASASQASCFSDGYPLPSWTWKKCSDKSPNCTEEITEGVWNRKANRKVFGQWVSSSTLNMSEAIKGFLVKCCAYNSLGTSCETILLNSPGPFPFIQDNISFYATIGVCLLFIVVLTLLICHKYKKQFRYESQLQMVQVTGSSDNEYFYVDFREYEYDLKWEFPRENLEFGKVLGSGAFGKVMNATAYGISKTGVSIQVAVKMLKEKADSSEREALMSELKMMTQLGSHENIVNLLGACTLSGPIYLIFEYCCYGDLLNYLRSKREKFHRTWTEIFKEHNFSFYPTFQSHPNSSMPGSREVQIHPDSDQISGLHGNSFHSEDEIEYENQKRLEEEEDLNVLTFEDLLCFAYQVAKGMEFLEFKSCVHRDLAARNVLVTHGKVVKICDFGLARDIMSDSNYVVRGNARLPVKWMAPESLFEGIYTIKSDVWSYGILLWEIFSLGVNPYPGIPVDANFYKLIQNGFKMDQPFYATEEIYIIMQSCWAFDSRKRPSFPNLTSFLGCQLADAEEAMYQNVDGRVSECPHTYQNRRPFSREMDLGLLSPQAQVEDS
Description: Inhibition of human FLT3 by Hotspot assay

[27] = target: T4, Receptor-type tyrosine-protein kinase FLT3; test: Inhibition of human FLT3 ITD-W51 mutant by Hotspot assay

Chain of Mast/stem cell growth factor receptor Kit (P10721 whole entry): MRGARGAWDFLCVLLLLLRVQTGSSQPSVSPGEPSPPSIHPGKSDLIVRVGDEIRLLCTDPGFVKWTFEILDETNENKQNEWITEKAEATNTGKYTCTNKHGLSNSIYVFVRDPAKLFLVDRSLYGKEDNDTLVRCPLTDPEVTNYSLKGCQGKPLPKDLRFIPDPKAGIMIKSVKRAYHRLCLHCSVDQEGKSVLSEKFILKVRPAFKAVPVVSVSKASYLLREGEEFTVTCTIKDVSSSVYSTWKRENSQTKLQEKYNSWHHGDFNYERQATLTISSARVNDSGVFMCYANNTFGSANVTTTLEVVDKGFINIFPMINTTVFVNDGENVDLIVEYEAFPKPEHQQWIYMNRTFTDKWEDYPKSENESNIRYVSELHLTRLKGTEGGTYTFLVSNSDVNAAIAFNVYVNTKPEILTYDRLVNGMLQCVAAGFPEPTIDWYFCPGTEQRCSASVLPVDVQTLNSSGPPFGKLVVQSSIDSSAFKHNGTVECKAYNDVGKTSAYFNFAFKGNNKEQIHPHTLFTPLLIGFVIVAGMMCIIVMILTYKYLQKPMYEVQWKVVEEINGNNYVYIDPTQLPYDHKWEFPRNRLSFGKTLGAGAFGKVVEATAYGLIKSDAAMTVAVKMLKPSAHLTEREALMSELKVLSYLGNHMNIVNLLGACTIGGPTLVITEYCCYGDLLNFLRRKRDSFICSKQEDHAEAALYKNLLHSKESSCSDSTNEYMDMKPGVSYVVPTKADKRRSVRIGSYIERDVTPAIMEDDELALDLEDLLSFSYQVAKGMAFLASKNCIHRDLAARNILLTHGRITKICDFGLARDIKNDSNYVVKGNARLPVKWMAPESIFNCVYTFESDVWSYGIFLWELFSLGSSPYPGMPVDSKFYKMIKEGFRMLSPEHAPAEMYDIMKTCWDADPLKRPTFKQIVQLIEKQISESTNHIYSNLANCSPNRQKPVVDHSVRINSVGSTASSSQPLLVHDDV

Cc1nc2c(c(Nc3c[nH]nc3C(=O)Nc3ccc(N4CCNCC4)cc3)n1)CCC2
inhibition (INH) [1]: Not Active | IC50 (K562): 11600 nM | Activity (MV4-11 [2]): 1.92% | Kd [3]: 13.1 nM | inhibition [4]: Dose-dependent effect | IC50 [5]: 23 nM | IC50 [6]: 9.15 nM | half-life [7]: 2.45 h | IC50 (HL-60): 26700 nM | Kd [8]: 5.33 nM | Activity (MV4-11 [9]): 60.4% | IC50 [10]: 94.6 nM | IC50 [11]: 8.74 nM | Activity (MV4-11 [12]): 29% | Activity (MV4-11 [13]): 23% | Kd [14]: 3.7 nM | Activity (MV4-11 [15]): 62.2% | inhibition [16]: Dose-dependent effect | IC50 [17]: 15.3 nM | inhibition [18]: > 50% | Activity (MV4-11 [19]): Dose-dependent effect | Activity (MV4-11 [20]): 0.83% | IC50 [21]: 6.97 nM | IC50 [22]: 1.79 nM | inhibition [23]: > 50% | IC50 [24]: 14.9 nM | activity at 0.123 µM [25]: 86.3% | IC50 [26]: 0.19 to 0.21 nM | IC50 [27]: 12.8 nM
